Series [1] has as its system human HSC. The series can be described thus: PDGF-induced migration of human hepatic stellate cells (modified Boyden chamber). The series is classed as cell-based. The settings on record: PDGF-BB 10 ng/ml, 24 h FTS, read-out: FTS concentration inhibiting (50%) the PDGF-stimulated cell migration. On the procedure:
Human HSCs were isolated from wedge sections of normal human liver unsuitable for transplantation as previously reported (6, 7). Briefly, after a combined digestion with collagenase/pronase, HSCs were separated from other liver nonparenchymal cells by ultracentrifugation over gradients of stractan (Cellsep™ isotonic solution, Larex Inc., St. Paul, Minn.). Extensive characterization was performed as described in (7). Cells were cultured on plastic culture dishes (Falcon, Becton Dickinson, Lincoln Park, N.J.) in Iscove's modified Dulbecco's medium supplemented with 0.6 U/ml insulin, 2.0 mmol/L glutamine, 0.1 mmol/L nonessential amino acids, 1.0 mmol/L sodium pyruvate, antibiotic antifungal solution (all provided by Gibco Laboratories, Grand Island, N.Y.) and 20% fetal bovine serum (Imperial Laboratories, Andover, U.K.). Experiments described in this study were performed on cells between third and fifth serial passages (1:3 split ratio) using three independent cell lines.
Cell migration was carried out as previously described (9, 10). […] After fixing in 96% methanol and staining with Harris' hematoxylin solution, cells that migrated to the underside of the filters were quantitated as the mean number of cells in 10 high-power fields (HPF). […] Possible cytotoxic effects were monitored by the trypan blue exclusion test.

The nature of series [2]: Distribution of 3H-FTS in plasma and liver. The series is classed as in vivo, rat. The settings on record: 5 mg/Kg. On the procedure:
For each set of experiments, FTS was prepared in chloroform (0.1 M stock solution) and maintained at −70° C. The chloroform was removed from the stock solution by a stream of nitrogen prior to use, and FTS was then dissolved either in DMSO (in vitro experiments) or in ethanol (in vivo experiments). The FTS/DMSO solutions were diluted with DMEM/10% fetal calf serum (FCS) to yield a 100×drug stock solution containing 10% DMSO. A portion of this solution was applied to the cells at a dilution of 1:100. The FTS/ethanol solution was alkalinized by the addition of 1N NaOH, then diluted with phosphate-buffered saline (PBS) to obtain a solution of 1.0 mg FTS/ml (pH 8.0, 0.5% ethanol). This solution (1-1.5 ml per rat) was used in the in vivo experiments. In a separate set of experiments, the distribution of FTS in the plasma and in the liver was assayed by the use of 3H -FTS (12.5 ci/mmole, ARC, St. Louis Mo.). […] The estimated concentration FTS in the liver at peak times (20 to 60 min) was 29 μM. Drug levels in the liver declined thereafter to the level of 0.5 μM at 24 h.

Series [3] has as its system MRL/lpr mice. Kind of series: Autoantibody levels in MRL mice after 2 months FTS (Example 4, ELISA). Format: in vivo, mouse. The settings on record: FTS 5 mg/kg 5 days per week. On the procedure: Two models of the antiphospholipid syndrome were compared. The MRL/lpr mouse, which is a […] model due to a mutaion in the Fas gene, and Balb-C mice immunized with ApoH (β2 glucoprotein 1), which is an induced model. The effect of 2 months FTS (5 days per week, 5 mg/kg) treatment on autoantibody levels in MRL mice (age 10 weeks to 18 weeks) is presented in FIG. 14. The levels of autoantibodies were measured at age 18 weeks by routine ELISA assays (repeated measures ANOVA, p=0.016). […] Anti-ApoH and anti-dsDNA were the major autoantibody groups found. Significant, but lower levels of autoantibodies to phospholipids and single stranded DNA were found in the MRL/lpr mice compared to the MLR/++ controls.
In general terms: An ELISA detects its analyte on a solid surface through an enzyme-linked reagent.

The test system of series [4] is TAA-induced acute liver injury in rats. Kind of series: TAA-induced acute liver damage in FTS-pretreated rats. The series is classed as in vivo, rat. The settings on record: TAA + FTS 5 mg/kg daily from 3 days before TAA; 52 h; Mean ± SD, n = 5. On the procedure: To exclude the possibility that the effect of FTS on hepatic fibrosis is due to anti-inflammatory rather than anti fibrotic activity, acute liver damage was induced by TAA (3 injections of 400 mg/kg, i.p.) in a separate group of FTS-pretreated rats. Blood was drawn 52 h after the first TAA injection for the measurement of serum levels of hepatic enzymes and blood ammonia, and liver tissue was […]. TAA was administered in 3 consecutive injections of 400 mg/kg, i.p. in 24 h intervals. Serum levels of liver enzymes, blood ammonia and liver histology were determined 52 h after the first TAA injection. FTS administration (5 mg/kg daily), was started 3 days prior to the first TAA injection.

[5] abbreviates: MRL/lpr mice, age 10 to 18 weeks.

As to `CC(C)=CCC/C(C)=C/CC/C(C)=C/CSc1ccccc1C(=O)O` [FTS, farnesyl thiosalicylic acid], in series [1], the IC50 was 2 to 2.5 µM. Also, in series [2], the “estimated concentration of FTS in the liver at peak times” value was 29 µM; the “peak liver levels, % of the injected dose” value stood at 1.75%; the “peak plasma levels, % of the injected dose” value is given as 10.7%; the “peak times in the liver” value lay in the range of 20 to 60 min. Further, the concentration at 24 h in series [2] (Wistar, rat, liver, other: injected (type of injection not given), read-out: drug level in the liver at 24 h) was found to be 500 nM. For the same compound, the “levels of autoantibodies to phospholipids and single stranded DNA (minor antibodies)” value in series [3] is given as “did not lower significantly”. Also, in series [3] (setting [5]), the “levels of anti-ApoH autoantibodies” value is recorded as “Significantly lower levels” and the “levels of anti-double stranded DNA (dsDNA) autoantibodies” value was “Significantly lower levels”. In series [4], the AST is on record as 2996 ± 364 IU/l; the “Blood Ammonia” value amounted to 8.9 ± 2.3 µg/mL; the “Hepatic inflammation and cell necrosis (score of 0-3)” value is 2.5 ± 0.6.

Source of the values: patent US6462086B1, “Non-malignant disease treatment with Ras antagonists” (Ramot University Authority for Applied Research and …, priority 1999, dated 2002).
